From patent US10758607B2, “Respiratory syncytial virus having cleavage-resistant G protein and related materials and methods” (The Research Institute at Nationwide Children's Hospital, priority 2015, dated 2020)
Entries after “also recorded” stand apart in the source; their conditions may differ. Where a SMILES comes first, the peptide text is derived from it.

Experiments:
[1] = test system: RSV G protein cleavage in Vero cells; assay: Cell-surface RSV G protein cleavage in rgRSV-infected cells treated with protease inhibitors (biotinylation, immunoblot with mAb L9); format: cell-based; conditions: 24 hpi
Procedure: To elucidate the class of protease responsible for G protein cleavage in Vero cells, cells were treated with increasing concentrations of protease inhibitors after inoculating with recombinant green fluorescent protein expressing RSV (rgRSV). Cells were incubated with rgRSV for 2 h with tipping at 37° C. before replacing inoculum with fresh cell culture medium. Drugs were added at different times post infection. In each case, uninfected, no drug, and vehicle (at the highest concentration used) were included in all experiments as controls. In all experiments at 24 hpi, cell surface proteins were biotinylated, cells lysed and equivalent amounts of protein from each sample were mixed with streptavidin beads.
Aprotinin, a serine protease inhibitor, leupeptin, a serine/cysteine protease inhibitor; or E-64, a cysteine protease inhibitor were added to the cell culture media (3.125 to 50 μg/ml) from 2-24 hpi. The most likely proteins to be incorporated into the virions are cell surface proteins, so the cell surfaced was biotinylated, proteins isolated from lysed cells with streptavidin beads, and immunobloted with L9, a mAb to the G protein, as a probe (FIG. 1A). In the untreated and vehicle treated samples most of the cell surface G protein was cleaved (˜55 kDa), leaving only a small portion of full length (˜90 kDa) G protein. […] Since both leupeptin and E64 block the activity of cysteine proteases, the protease responsible for cleavage of the G protein in Vero cells is a cysteine protease.
To narrow the field of cysteine proteases, cells were treated at 6 hpi with a more specific cysteine protease inhibitor, ALLM (0.1 to 100 μM).
RSV-infected HeLa and Vero cells were treated with a cathepsin B inhibitor, CA-074 (0.1 to 100 μM), or a cathepsin L inhibitor, cathepsin L inhibitor III (0.1 to 100 μM) 6 hpi.
Cathepsin L is a protease present primarily in the interior of the lysosome and is optimally active at acidic pH. Vero cells expressing the G protein were treated with chloroquine to raise the pH of the lysosome. […] To generate FIG. 4C, cells were inoculated with RSV or mock inoculated. 6 hpi the cells were treated with increasing concentrations of chloroquine. 24 hpi cells were biotinylated and G protein assayed
HeLa and Vero cells were rgRSV (MOI: 1) or mock inoculated. 2 hpi the inoculum was replaced with fresh complete medium, and 4 hpi cells the medium was changed again to complete medium with 2-fold dilutions of these protease inhibitors (Sigma-Aldrich, St. Louis, Mo.), dissolved in water: Aprotinin (3.125 to 50 μg/ml); Leupeptin (6.25 to 100 μg/ml); E-64 (6.25 to 100 μg/ml); or equal volumes of water in medium. In other experiments, cells were treated at 6 hpi with: 10-fold dilutions (0.1 to 100 μM) of: Cathepsin inhibitor I (Calbiochem); ALLM (Santa Cruz, Dallas, Tex.); Chloroquine diphosphate salt (Sigma Aldrich) or equivalent volumes of vehicle (water); CA-074 (Calbiochem); Cathepsin L inhibitor III (Calbiochem); or an equal volume of vehicle (DMSO) in medium.
At 24 hpi cells were biotinylated with Ez-link Sulfo-NHS-LC-Biotin (Thermo Fisher). Cells were lysed with lysis buffer containing 150 mM NaCl, 1% Triton X-100, 50 mM Tris, 0.1% SDS, and 1× Halt protease cocktail inhibitor (Thermo Fisher). Proteins were quantified using BCA protein assay kit (Pierce, Waltham, Mass.), and equal amounts of protein were added to high capacity streptavidin agarose beads (Thermo Fisher). The mixtures were rotated for 1 h at 4° C., the beads were pelleted and washed with lysis buffer (without protease cocktail inhibitor), NuPage LDS sample buffer was added, and boiled for 5 min, separated by NuPAGE Novex 4-12% bis-tris protein gels and transferred to nitrocellulose in an iBlot transfer stack, using the iBlot transferring system (Life Technologies) for immunoblot analysis. […]

[2] = test system: RSV G protein cleavage in Vero cells; assay: Cleavage of mutant G proteins transiently expressed in Vero cells (immunoblot); format: cell-based; conditions: for cleavage of G protein deletion mutants: 24 h post-transfection, vs wt G protein; for resistance to cleavage of alanine substitution G protein mutants: 24 hours post-transfection
Procedure: The G gene in the region of amino acid 210 was modified by deleting stretches of amino acids in this region (200-211, 204-213, 206-215, 208-217, or 209-213). […] Most of the mutants almost completely ablate cleavage. They all share amino acids 208-211. However, A206-210 and A206-215, both of which bring together amino acids that can also serve as a cathepsin L cleavage site. For FIG. 6B, the mutated G protein genes were transiently expressed in Vero cells. 24 h post-transfection cells were harvested, lysed and proteins were separated by SDS-PAGE, blotted and probed with mAb to the G protein.
To identify which amino acids are important for cleavage, individual amino acids in and around this region were changed to alanine. These mutant G proteins were transiently expressed in Vero cells and assessed by immunoblot (FIG. 6C). For FIG. 6C, the mutated G protein genes were transiently expressed in Vero cells. 24 hours post-transfection cells were harvested, lysed and proteins were separated by SDS-PAGE, blotted and probed with mAb to the G protein.
The strain A2 G protein plasmid was mutagenized using synthetic double strand gBlock DNA (Integrated DNA Technologies). Van91I (Thermo Fisher) and Xho I (New England Biolabs) were used to digest plasmid and gBlock. Doubly-digested plasmid was isolated by agarose gel electrophoresis. Digested gBlock and eluted plasmid DNAs were ligated with T4 DNA ligase (Promega, Madison, Wis.), and transformed into One Shot MachI-T1 chemically competent bacteria (Life Technologies). Plasmids were extracted using HiSpeed or Plasmid Plus Maxi kits (Qiagen).
Wild type G or frG proteins were expressed in HeLa or Vero cells following plasmid transfection with FuGene HD (Promega) or Lipofectamine LTX (Life Technologies), respectively, in medium containing 2% FBS. In frG experiments, medium was collected and concentrated using Ultracel-10 K centrifugal filters (EMD Millipore, Billerica, Mass.). For other transfection experiments, Vero cells were transfected using Lipofectamine 3000 (Life Technologies) in medium containing 10% FBS. For all transfection experiments, cells were lysed and protein quantified by BCA assay. Equivalent HeLa or Vero cell lysate protein and equivalent volumes of concentrated proteins from the medium were analyzed by immunoblotting.

[3] = rgRSV-infected Vero cells, 6.24 to 100 μg/ml

With `CSCC[C@@H](C=O)NC(=O)[C@H](CC(C)C)NC(=O)[C@H](CC(C)C)NC(C)=O` [ALLM] (Ac-Leu-Leu-Met-aldehyde) the “G protein cleavage (cell surface G protein)” value (“G protein cleavage” below) ([1]; rgRSV-infected Vero cells, treated at 6 hpi, 0.1 to 100 μM) was “prevention of cleavage; also recorded: inhibited G protein cleavage”.

For “206-215: RSV G protein with amino acids 206-215 deleted”, the “cleavage of G protein deletion mutants” value [2] was “cleaved less efficiently than the wt G protein” and the “cleavage of G protein deletion mutants” value ([2]; listed as Δ206-215) was “inhibit but do not abolished protein cleavage”.

Δ206-210 was tested, and the “cleavage of G protein deletion mutants” value [2] was “inhibit but do not abolished protein cleavage”.

With `CC(C)C[C@H](NC(=O)[C@H]1O[C@@H]1C(=O)O)C(=O)NCCCCN=C(N)N` [E64, E-64] the “G protein cleavage” value [1, 3] was “did, in a dose dependent manner” and the “G protein cleavage” value ([1]; rgRSV-infected Vero cells, 6.24 to 100 μg/ml, listed as E-64) was “prevention of cleavage”.

For `CCN(CC)CCCC(C)Nc1ccnc2cc(Cl)ccc12` (stereo not drawn) [chloroquine], the “G protein on the cell surface (cleaved vs full length)” value ([1]; Vero cells, increasing concentrations of chloroquine from 6 hpi) was “primarily full length G protein; also recorded: decreased cleavage”.

With `CCCNC(=O)[C@H]1O[C@@H]1C(=O)N[C@H](C(=O)N1CCC[C@H]1C(=O)O)[C@@H](C)CC` [CA-074] the “G protein cleavage” value ([1]; RSV-infected HeLa and Vero cells, 0.1 to 100 μM at 6 hpi) was “RSV G protein cleavage in the presence; also recorded: did not change this pattern”.

`CC(=O)N[C@@H](CC(C)C)C(=O)N[C@@H](CC(C)C)C(=O)N[C@H](C=O)CCCNC(=N)N` [leupeptin] was tested, and the “G protein cleavage” value [1, 3] was “did, in a dose dependent manner” and the “G protein cleavage” value ([1]; rgRSV-infected Vero cells, 6.24 to 100 μg/ml, listed as Leupeptin) was “prevention of cleavage”.

With Aprotinin the “G protein cleavage” value ([1]; rgRSV-infected Vero cells, 3.125 to 50 μg/ml) was “did not prevent G protein cleavage”.

For “D214: RSV strain A2 G protein with alanine substitution at D214”, the “resistance to cleavage of alanine substitution G protein mutants” value (“resistance to cleavage” below) [2] was “partially to nearly completely resistant to cleavage”.

In the case of “K212: RSV strain A2 G protein with alanine substitution at K212”, the “resistance to cleavage” value [2] is reported as “partially to nearly completely resistant to cleavage”.

“K209: RSV strain A2 G protein with alanine substitution at K209” was tested, and the “efficiency at inhibiting cleavage (rank among alanine substitutions)” value [2] was “second most efficient” and the “resistance to cleavage” value [2] was “partially to nearly completely resistant to cleavage”.
